In US10519177B2, “Heterocyclic compounds and uses thereof” (Plexxikon Inc., priority 2013, dated 2019):
Where two headings read alike, the source gives them in different places.

Tests used:
BRD4-BD1 (44-164) = BRD4-BD1 (44-164) (Homo sapiens (Human), UniProt O60885); test: Alphascreen binding assay BRD4-BD1; details: BRD4(1) H4; read-out: Biochemical activity (IC50 μM) BRD4(1) H4
Procedure, shortened: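 AlphaScreen signal (nickel acceptor, streptavidin donor beads, 7.5 µg/ml each, read 30 min after addition) reports displacement of biotin-H4 K5/K8/K12/K16-acetyl peptide from His-BRD4 BD1 (44-164) or tandem BD12 (1-477).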

BRD4-BD12 (1-477) = BRD4-BD12 (1-477) (Homo sapiens (Human), UniProt O60885); test: Alphascreen binding assay BRD4-BD12; details: BRD4(1 2) H4; read-out: Biochemical activity (IC50 μM) BRD4(1 2) H4
Procedure, shortened: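 In this competition format, compounds displace a biotinylated tetra-acetyl H4 peptide from E. coli-expressed human BRD4 bromodomain constructs captured on nickel chelate beads. The reaction runs at pH 7.5 with 2 mM DTT and detergent for 1 h at room temperature before a 30 min bead step.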

MV-4-11 cells = test: Oncology cell growth assay MV-4-11 (CellTiter Glo); assay type: cell-based
Procedure, shortened: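 Growth read by CellTiter Glo luminescence after 72 h compound treatment of MLL-AF4-bearing MV-4-11 cells (3000/well). Titration: 8 points, 1:3 steps, maximum 10 μM, 0.2% DMSO final. Data normalized to DMSO wells, four-parameter fit gives pIC50.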

bromodomain = test: at least one of the bromodomain cell assays of Example 57; assay type: cell-based; details: read-out: IC50 in at least one of the bromodomain cell assays
[1] = Homo sapiens, MV4-11, 72 h; read-out: Cell activity (IC50 μM) MV-4-11 3d-Growth
[2] = at least one of the bromodomain cell assays described in Example 57

Row | SMILES | IC50 (BRD4-BD1 (44-164)) | IC50 (BRD4-BD12 (1-477)) | IC50 (MV-4-11 cells; [1]) | IC50 (bromodomain; [2]) | IC50 (MV-4-11 cells; Homo sapiens, MV4-11, 72 h, read-out: Cell activity (IC50 μM) MV-4-11 3d-Growth) | IC50 (bromodomain)
1 | Cc1c(-c2cnc3ccn(CC4CCC(F)(F)CC4)c3c2)cnn1C [P-0293, l-[(4,4-difluorocyclohexyl)methyl]-6-(1,5-dimethylpyrazol-4-yl)pyrrolo[3,2-b]pyridine] | 10 to 200 µM | 10 to 200 µM | 10 to 200 µM | < 10 µM |  | 
2 | Cc1onc(N)c1-c1cnc2ccn(CC3CCC(F)(F)CC3)c2c1 [P-0329, 4-[1-[(4,4-difluorocyclohexyl)methyl]pyrrolo[3,2-b]pyridin-6-yl]-5-methyl-isoxazol-3-amine] | < 1 µM | < 1 µM | 1 to 10 µM | < 10 µM |  | 
3 | Cc1noc(C)c1-c1cnc2ccn(CC3CCC(F)(F)CC3)c2c1 [P-0282, 4-[1-[(4,4-difluorocyclohexyl)methyl]pyrrolo[3,2-b]pyridin-6-yl]-3,5-dimethyl-isoxazole] | < 1 µM | 1 to 10 µM | < 1 µM | < 10 µM |  | 
4 | Cc1noc(C)c1-c1cnc2c(C#CCO)cn(CC3CCC(F)(F)CC3)c2c1 [P-0264, 3-[1-[(4,4-difluorocyclohexyl)methyl]-6-(3,5-dimethylisoxazol-4-yl)pyrrolo[3,2-b]pyridin-3-yl]prop-2-yn-1-ol] | < 1 µM | 1 to 10 µM | < 1 µM | < 10 µM |  | 
5 | Cc1nnn(C)c1-c1cnc2c(-c3cnn(C)c3)cn(CC3CCC(F)(F)CC3)c2c1 [P-0310, 1-[(4,4-difluorocyclohexyl)methyl]-6-(3,5-dimethyltriazol-4-yl)-3-(1-methylpyrazol-4-yl)pyrrolo[3,2-b]pyridine] | < 1 µM | < 1 µM | < 1 µM | < 10 µM |  | 
6 | Cc1nnc(CCl)n1-c1cnc2[nH]ccc2c1 [P-0322, 5-[3-(chloromethyl)-5-methyl-1,2,4-triazol-4-yl]-1H-pyrrolo[2,3-b]pyridine] | 10 to 200 µM | 10 to 200 µM | 1 to 10 µM | < 10 µM |  | 
7 | Cc1noc(C)c1-c1cnc2c(-c3cnn(CCC#N)c3)cn(CC3CCC(F)(F)CC3)c2c1 [P-0298, 3-[4-[1-[(4,4-difluorocyclohexyl)methyl]-6-(3,5-dimethylisoxazol-4-yl)pyrrolo[3,2-b]pyridin-3-yl]pyrazol-1-yl]propanenitrile] | < 1 µM | < 1 µM | < 1 µM | < 10 µM |  | 
8 | Cc1noc(C)c1-c1cnc2c(-c3cnco3)cn(C(C)c3ccccc3)c2c1 (centres unmarked) [P-0301, 3,5-dimethyl-4-[3-oxazol-5-yl-1-(1-phenylethyl)pyrrolo[3,2-b]pyridin-6-yl]isoxazole] | < 1 µM | < 1 µM | < 1 µM | < 10 µM |  | 
9 | Cc1ccc(-c2cnc3ccn(CC4CCC(F)(F)CC4)c3c2)cn1 [P-0313, 1-[(4,4-difluorocyclohexyl)methyl]-6-(6-methyl-3-pyridyl)pyrrolo[3,2-b]pyridine] | 10 to 200 µM | < 1 µM | 10 to 200 µM | < 10 µM |  | 
10 | Cc1noc(C)c1-c1cnc2c(I)cn(Cc3ncccn3)c2c1 [P-0319, 4-[3-iodo-1-(pyrimidin-2-ylmethyl)pyrrolo[3,2-b]pyridin-6-yl]-3,5-dimethyl-isoxazole] | < 1 µM | < 1 µM | < 1 µM | < 10 µM |  | 
11 | [2H]C([2H])(C1CC(F)(F)C1)n1cc(-c2cnn(CC(F)(F)F)c2)c2ncc(-c3c(C)noc3C)cc21 [P-0257, 4-[1-[dideuterio-(3,3-difluorocyclobutyl)methyl]-3-[1-(2,2,2-trifluoroethyl)pyrazol-4-yl]pyrrolo[3,2-b]pyridin-6-yl]-3,5-dimethyl-isoxazole] | < 1 µM | < 1 µM | < 1 µM | < 10 µM |  | 
12 | Cc1noc(C)c1-c1cnc2c(-c3ccc(C(=O)O)cc3)cn(S(=O)(=O)c3ccccc3)c2c1 [P-0371, 4-[1-(benzenesulfonyl)-6-(3,5-dimethylisoxazol-4-yl)pyrrolo[3,2-b]pyridin-3-yl]benzoic acid] | < 1 µM | < 1 µM | < 1 µM | < 10 µM |  | 
13 | Cc1noc(C)c1-c1cnc2c(-c3cnn(C)c3)cn(C(CC#N)c3ccccc3)c2c1 (centres unmarked) [P-0331, 3-[6-(3,5-dimethylisoxazol-4-yl)-3-(1-methylpyrazol-4-yl)pyrrolo[3,2-b]pyridin-1-yl]-3-phenyl-propanenitrile] | < 1 µM | < 1 µM | < 1 µM | < 10 µM |  | 
14 | Cc1noc(C)c1-c1cnc2c(-c3ccc(C(=O)O)cc3)cn(C(C)c3ccccc3)c2c1 (centres unmarked) [P-0273, 4-[6-(3,5-dimethylisoxazol-4-yl)-1-(1-phenylethyl)pyrrolo[3,2-b]pyridin-3-yl]benzoic acid] | < 1 µM | < 1 µM | < 1 µM | < 10 µM |  | 
15 | Cc1noc(C)c1-c1cnc2c(-c3cnc(C4CC4)nc3)cn(C(C)c3ccccc3)c2c1 (centres unmarked) [P-0278, 4-[3-(2-cyclopropylpyrimidin-5-yl)-1-(1-phenylethyl)pyrrolo[3,2-b]pyridin-6-yl]-3,5-dimethyl-isoxazole] | < 1 µM | < 1 µM | < 1 µM | < 10 µM |  | 
16 | Cc1onc(NC(=O)OC(C)(C)C)c1-c1cnc2ccn(CC3CCC(F)(F)CC3)c2c1 [P-0323, tert-butyl N-[4-[1-[(4,4-difluorocyclohexyl)methyl]pyrrolo[3,2-b]pyridin-6-yl]-5-methyl-isoxazol-3-yl]carbamate] | 10 to 200 µM | < 1 µM | 10 to 200 µM | < 10 µM |  | 
17 | Cc1nnn(C)c1-c1cnc2c(-c3cnn(CC(F)(F)F)c3)cn(CC3CCC(F)(F)CC3)c2c1 [P-0311, 1-[(4,4-difluorocyclohexyl)methyl]-6-(3,5-dimethyltriazol-4-yl)-3-[1-(2,2,2-trifluoroethyl)pyrazol-4-yl]pyrrolo[3,2-b]pyridine] | < 1 µM | 1 to 10 µM | < 1 µM | < 10 µM |  | 
18 | COc1ncc(-c2cn(C(C)c3ccccc3)c3cc(-c4c(C)noc4C)cnc23)cn1 (centres unmarked) [P-0275, 4-[3-(2-methoxypyrimidin-5-yl)-1-(1-phenylethyl)pyrrolo[3,2-b]pyridin-6-yl]-3,5-dimethyl-isoxazole] | < 1 µM | < 1 µM | < 1 µM | < 10 µM |  | 
19 | Cc1noc(C)c1-c1cnc2c(-c3cnn(CC(F)(F)F)c3)cn(C(CC#N)c3ccccc3)c2c1 (centres unmarked) [P-0332, 3-[6-(3,5-dimethylisoxazol-4-yl)-3-[1-(2,2,2-trifluoroethyl)pyrazol-4-yl]pyrrolo[3,2-b]pyridin-1-yl]-3-phenyl-propanenitrile] | < 1 µM | < 1 µM | < 1 µM | < 10 µM |  | 
20 | Cc1noc(N)c1-c1cnc2ccn(CC3CCC(F)(F)CC3)c2c1 [P-0328, 4-[1-[(4,4-difluorocyclohexyl)methyl]pyrrolo[3,2-b]pyridin-6-yl]-3-methyl-isoxazol-5-amine] | < 1 µM | < 1 µM | 1 to 10 µM | < 10 µM |  | 
21 | Cc1noc(C)c1-c1cnc2c(C#C[Si](C)(C)C)cn(C(C)c3ccccc3)c2c1 (centres unmarked) [P-0288, 2-[6-(3,5-dimethylisoxazol-4-yl)-1-(1-phenylethyl)pyrrolo[3,2-b]pyridin-3-yl]ethynyl-trimethyl-silane] | < 1 µM | < 1 µM |  |  | < 1 µM | < 10 µM
22 | Cc1noc(C)c1-c1cnc2c(Br)cn(C(CC#N)C3CC3)c2c1 (centres unmarked) [P-0308, 3-[3-bromo-6-(3,5-dimethylisoxazol-4-yl)pyrrolo[3,2-b]pyridin-1-yl]-3-cyclopropxl-propanenitrile] | < 1 µM | < 1 µM | < 1 µM | < 10 µM |  | 
23 | Cc1noc(C)c1-c1cnc2c(-c3cnc(N)nc3)cn(C(C)c3ccccc3)c2c1 (centres unmarked) [P-0277, 5-[6-(3,5-dimethylisoxazol-4-yl)-1-(1-phenylethyl)pyrrolo[3,2-b]pyridin-3-yl]pyrimidin-2-amine] | < 1 µM | < 1 µM | < 1 µM | < 10 µM |  | 
24 | Cc1noc(C)c1-c1cnc2c(-c3ccnc(C4CC4)c3)cn(C(C)c3ccccc3)c2c1 (centres unmarked) [P-0268, 4-[3-(2-cyclopropyl-4-pyridyl)-1-(1-phenylethyl)pyrrolo[3,2-b]pyridin-6-yl]-3,5-dimethyl-isoxazole] | < 1 µM | < 1 µM | < 1 µM | < 10 µM |  | 
25 | Cc1noc(C)c1-c1cnc2c(-c3cnn(C)c3)cn(C(CC#N)C3CC3)c2c1 (centres unmarked) [P-0316, 3-cyclopropyl-3-[6-(3,5-dimethylisoxazol-4-yl)-3-(1-methylpyrazol-4-yl)pyrrolo[3,2-b]pyridin-1-yl]propanenitrile] | < 1 µM | < 1 µM | < 1 µM | < 10 µM |  | 
26 | Cc1noc(C)c1-c1cnc2c(-c3cnn(C)c3)cn(Cc3ccccc3)c2c1 [P-0327, 4-[1-benzyl-3-(1-methylpyrazol-4-yl)pyrrolo[3,2-b]pyridin-6-yl]-3,5-dimethyl-isoxazole] | < 1 µM | < 1 µM | < 1 µM | < 10 µM |  | 
